Patent publication US20130064812A1, “COMBINATION THERAPIES FOR HEMATOLOGIC MALIGNANCIES” (Gilead Calistoga LLC, priority 2011, published 2013)
“Also recorded” adds a separate entry of the source. Where two headings read alike, the source gives them in different places.

Legend:
[1] = tested on: patient chronic lymphocytic leukemia (CLL) cells; test: Apoptosis of patient CLL cells (Annexin V-FITC/PI); assay type: cell-based, human
Experimental: Peripheral blood was obtained from patients with B-CLL through the CLL Research Consortium from Ohio State University. Primary CD19-positive cells were isolated using Rosette-Sep (StemCell Technologies). Cells were maintained in RPMI 1640 (Invitrogen) supplemented with 10% heat-inactivated fetal bovine serum, 2 mmol/L L-glutamine, and penicillin (100 units/mL)/streptomycin (100 μg/mL; Invitrogen) at 37° C., 5% CO2, and high humidity. […] After incubation for 10 minutes at room temperature in a light-protected area, the specimens were quantified by flow cytometry on a FACScan™ (Becton Dickinson).

## CC[C@H](Nc1ncnc2[nH]cnc12)c1nc2cccc(F)c2c(=O)n1-c1ccccc1 [Compound I, 5-fluoro-3-phenyl-2-[1-(9H-purin-6-ylamino)-propyl]-3H-quinazolin-4-one]
[1]
  apoptosis of CLL cells from poor prognosis patients: induced apoptosis was seen
  apoptosis of CLL cells from refractory/relapsed patients: induced apoptosis was also seen to be effective
[1]; 96 hours
  apoptosis of CLL patient cells: dose-dependent cytotoxicity; also recorded: results in apoptosis and the result appears to be dose-dependent
[1]; listed as compound I
  apoptosis of CLL cells from poor prognosis patients: increased apoptosis
[1]; listed as compound of formula I
  apoptosis of CLL cells from refractory/relapsed patients: increased apoptosis
MM cell lines
  cytotoxicity against p110δ-positive MM cells: induced cytotoxicity against LB and INA-6 mM cells (p110δ-positive) in a dose- and time-dependent fashion
  cytotoxicity in p110δ-negative cell lines: minimal cytotoxicity
